Experiments:
Myzus persicae [1] = assay: Myzus persicae translaminar test (MYZUPE t); assay type: in vivo; settings: 14 dat
Protocol: Myzus persicae—Translaminar Test (MYZUPE t)
(§1) Solvent: 7 parts by weight of dimethylformamide
(§2) Emulsifier: alkylaryl poly glycol ether
(§3) To produce an appropriate active ingredient formulation, 1 part by weight of active ingredient is dissolved using the stated parts by weight of solvent and made up with water containing an emulsifier concentration of 1000 ppm until the desired concentration is attained. To produce further test concentrations, the preparation is diluted with emulsifier-containing water. In the event that addition of ammonium salts or/and penetrants (rapeseed oil methyl ester) is required, these are each pipetted in a concentration of 1000 ppm after the finished formulation solution has been diluted.
One-leaved bell pepper plants (Capsicum annuum) heavily infested by the green peach aphid (Myzus persicae) are treated by spraying the top side of the leaf with the active ingredient formulation in the desired concentration.
(§4) After the desired time, the kill in % is determined. 100% means that all the aphids have been killed and 0% means that none of the aphids have been killed.

Spodoptera frugiperda = Spodoptera frugiperda spray test (SPODFR); assay type: in vivo; settings: application rate 500 g/ha; maize leaf discs; after 7 days
Protocol: Spodoptera frugiperda—Spray Test (SPODFR)
Solvent: 78.0 parts by weight of acetone • • 1.5 parts by weight of dimethylformamide
(§5) Emulsifier: alkylaryl polyglycol ether
(§6) To produce an appropriate active ingredient formulation, 1 part by weight of active ingredient is dissolved using the stated parts by weight of solvent and made up with water containing an emulsifier concentration of 1000 ppm until the desired concentration is attained. To produce further test concentrations, the preparation is diluted with emulsifier-containing water.
Leaf discs of maize (Zea mays) are sprayed with an active ingredient formulation of the desired concentration and, after drying, populated with caterpillars of the armyworm (Spodoptera frugiperda).
After 7 days, the efficacy in % is determined. 100% means that all the caterpillars have been killed; 0% means that no caterpillars have been killed.

Ctenocephalides felis = Ctenocephalides felis oral test (CTECFE); assay type: in vivo; settings: application rate 100 ppm; in citrated cattle blood; after 2 days
Protocol: Ctenocephalides felis-Oral Test ([…]) Solvent: dimethyl sulphoxide For the purpose of producing an appropriate active ingredient formulation, 10 mg of active ingredient are mixed with 0.5 ml of dimethyl sulphoxide. Dilution with citrated cattle blood gives the desired concentration. About 20 unfed adult cat fleas (Ctenocephalides felis) are placed into a chamber which is closed at the top and bottom with gauze. A metal cylinder whose bottom end is closed with parafilm is placed onto the chamber. The cylinder contains the blood/active ingredient preparation, which can be imbibed by the fleas through the parafilm membrane. After 2 days, the kill in % is determined. 100% means that all of the fleas have been killed; 0% means that none of the fleas have been killed.

Nilaparvata lugens = Nilaparvata lugens test (NILALU); assay type: in vivo; settings: 4 ppm
Protocol: Nilaparvata lugens Test (NILALU)
as §1, §5, §3
Rice plants (Oryza sativa, var. Balilla) are treated by spraying with the active ingredient formulation in the desired concentration and then populated with L3 larvae of the brown planthopper (Nilaparvata lugens).
After the desired time, the feeding damage in % is determined. 100% means that no feeding damage is found; 0% means that the feeding damage to the treated plant corresponds to that of the untreated control.

Myzus persicae [2] = assay: Myzus persicae contact test (MYZUPE c); assay type: in vivo; settings: 2.4 g/ha, 14 dat
Protocol: Myzus persicae—Contact Test (MYZUPE c)
as §1, §2, §3
One-leaved bell pepper plants (Capsicum annuum) heavily infested by the green peach aphid (Myzus persicae) are treated by spraying the underside of the leaf with the active ingredient formulation in the desired concentration.
as §4

Myzus persicae [3] = assay: Myzus persicae spray test (MYZUPE), Chinese cabbage leaf discs; assay type: in vivo; settings: application rate 500 g/ha, after 6 days
Protocol: Myzus persicae—Spray Test (MYZUPE)
Solvent: 78 parts by weight of acetone • • 1.5 parts by weight of dimethylformamide
as §2, §6
Discs of Chinese cabbage leaves (Brassica pekinensis) infested by all stages of the green peach aphid (Myzus persicae) are sprayed with an active ingredient formulation of the desired concentration.
After 6 days, the efficacy in % is determined. 100% means that all the aphids have been killed; 0% means that none of the aphids have been killed.

[4] = log P by HPLC on a reversed-phase column (C 18), EEC Directive 79/831 Annex V.A8; assay type: physicochemical; settings: 55° C.
Procedure, shortened: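 Reversed-phase C18 HPLC at 55 °C, 10→95% acetonitrile linear gradient. log P (HCOOH) run at pH 2.7 with 0.1% formic acid; log P (neutral) at pH 7.8 with 0.001 M ammonium hydrogencarbonate. Calibrated by retention-time interpolation between unbranched C3–C16 alkan-2-ones of known log P.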

Lucilia cuprina = Lucilia cuprina test (LUCICU); assay type: in vivo; settings: application rate 100 ppm; L1 larvae; after 2 days
Protocol: Lucilia cuprina Test (LUCICU) Solvent: dimethyl sulphoxide To produce an appropriate active ingredient formulation, 10 mg of active ingredient are mixed with 0.5 ml of dimethyl sulphoxide, and the concentrate is diluted with water to the desired concentration. About 20 L1 larvae of the Australian sheep blowfly (Lucilia cuprina) are transferred into a test vessel containing minced horsemeat and the active ingredient preparation of the desired concentration. After 2 days, the kill in % is determined. 100% means that all the larvae have been killed; 0% means that none of the larvae have been killed.

Aphis gossypii = Aphis gossypii contact test (APHIGO c); assay type: in vivo; settings: 2.4 g/ha, 7 dat
Protocol: Aphis gossypii—Contact Test (APHIGO c)
as §1, §5, §3
One-leaved cotton plants (Gossypium hirsutum) heavily infested by the cotton aphid (Aphis gossypii) are treated by spraying the underside of the leaf with the active ingredient formulation in the desired concentration.
as §4

Nephotettix cincticeps = Nephotettix cincticeps test (NEPHCI); assay type: in vivo; settings: 0.16 ppm
Protocol: Nephotettix cincticeps Test (NEPHCI)
as §1, §5, §3
Rice plants (Oryza sativa, var. Balilla) are treated by spraying with the active ingredient formulation in the desired concentration and then populated with larvae of the green rice leafhopper (Nephotettix cincticeps).
After the desired time, the kill in % is determined. 100% means that all leafhoppers have been killed; 0% means that none of the leafhoppers have been killed.

Which “% efficacy” value (Myzus persicae [1]; 2.4 g/ha) does the source give for `CCS(=O)(=O)c1cc(C(F)(F)F)cnc1-c1nc2cc(C(F)(F)F)ncc2n1C` [Example I-21] here?
Its value is 90%.

And the “% efficacy” value (Myzus persicae [1]; 12 g/ha)?
Its value is 98%.

And the efficacy (Spodoptera frugiperda)?
Its efficacy is 100%.

What about the “efficacy (kill)” value (Ctenocephalides felis) of the same compound?
Its value is 90%.

What about the “% efficacy” value (Nilaparvata lugens; 21 dat) of the same compound?
Its value is 90%.

And the “% efficacy” value (Nilaparvata lugens; 28 dat)?
Its value is 100%.

What about the “% efficacy” value (Myzus persicae [2]) of the same compound?
The value was 85%.

What about the efficacy (Myzus persicae [3]) of the same compound?
The efficacy was 90%.

And the LOGP_HCOOH ([4]; acidic range, pH 2.7, 0.1% aqueous formic acid/acetonitrile)?
Its LOGP_HCOOH is 2.98.

What about the LOGP_NEUTRAL ([4]; neutral range, pH 7.8, 0.001 molar aqueous ammonium hydrogencarbonate/acetonitrile) of the same compound?
The LOGP_NEUTRAL was 2.93.

And the “efficacy (kill)” value (Lucilia cuprina)?
Its value is 100%.

And the “% efficacy” value (Aphis gossypii)?
Its value is 98%.

And the “% efficacy” value (Nephotettix cincticeps; 14 dat)?
Its value is 90%.

What about the “% efficacy” value (Nephotettix cincticeps; 21 dat) of the same compound?
The value was 95%.

And the “% efficacy” value (Nephotettix cincticeps; 34 dat)?
The value was 100%.

Reference: patent publication US11274097B2, “2-(het)aryl-substituted condensed bicyclic heterocycle derivatives as pest control agents” (BAYER CROPSCIENCE AKTIENGESELLSCHAFT, priority 2014, dated 2022)
